One may read the IC50 as the midpoint of a concentration-inhibition curve. One may read the melting point as the temperature, or range, at which the solid turns liquid.

This note sets out measurements from US7115621B2, “Chemical compounds” (Lilly Icos LLC, priority 2001, dated 2006).

The target of one series is recombinant human PDE5 (Homo sapiens, UniProt O76074). The series can be described thus: Inhibitory effect on cGMP-PDE, one-step assay, human recombinant PDE5. In kind it is biochemical. The conditions noted are these: Table 1, Examples. As to the method: The compounds of structural formula (I) were tested for an ability to inhibit PDE5. The ability of a compound to inhibit PDE5 activity is related to the IC50 value for the compound, i.e., the concentration of inhibitor required for 50% inhibition of enzyme activity. The IC50 value for compounds of structural formula (I) were determined using recombinant human PDE5.
Recombinant production of human PDE1B, PDE2, PDE4A, PDE4B, PDE4C, PDE4D, PDE5, and PDE7 was carried out similarly to that described in Example 7 of U.S. Pat. No. 5,702,936, incorporated herein by reference, except that the yeast transformation vector employed, which is derived from the basic ADH2 plasmid described in Price et al., Methods in Enzymology, 185, pp. 308–318 (1990), incorporated yeast ADH2 promoter and terminator sequences and the Saccharomyces cerevisiae host was the protease-deficient strain BJ2-54 deposited on Aug. 31, 1998 with the American Type Culture Collection, Manassas, Virginia, under accession number ATCC 74465. Transformed host cells were grown in 2×SC-leu medium, pH 6.2, with trace metals, and vitamins. After 24 hours, YEP medium-containing glycerol was added to a final concentration of 2×YET/3% glycerol. Approximately 24 hr later, cells were harvested, washed, and stored at −70° C.
Phosphodiesterase activity of the preparations was determined as follows. PDE assays utilizing a charcoal separation technique were performed essentially as described in Loughney et al. (1996). In this assay, PDE activity converts [32P]cAMP or [32P]cGMP to the corresponding [32P]5′-AMP or [32P]5′-GMP in proportion to the amount of PDE activity present. The [32P]5′-AMP or [32P]5′-GMP then was quantitatively converted to free [32P]phosphate and unlabeled adenosine or guanosine by the action of snake venom 5′-nucleotidase. […] The assay was performed at 30° C. in a 100 μL reaction mixture containing (final concentrations) 40 mM Tris HCl (pH 8.0), 1 μM ZnSO4, 5 mM MgCl2, and 0.1 mg/mL bovine serum albumin (BSA). PDE enzyme was present in quantities that yield <30% total hydrolysis of substrate (linear assay conditions). The assay was initiated by addition of substrate (1 mM [32P]cAMP or cGMP), and the mixture was incubated for 12 minutes. Seventy-five (75) μg of Crotalus atrox venom then was added, and the incubation was continued for 3 minutes (15 minutes. total). The reaction was stopped by addition of 200 μL of activated charcoal (25 mg/mL suspension in 0.1 M NaH2PO4, pH 4). After centrifugation (750×g for 3 minutes) to sediment the charcoal, a sample of the supernatant was taken for radioactivity determination in a scintillation counter and the PDE activity was calculated.
Cell pellets (29 g) were thawed on ice with an equal volume of Lysis Buffer (25 mM Tris HCl, pH 8, 5 mM MgCl2, 0.25 mM DTT, 1 mM benzamidine, and 10 μM ZnSO4). Cells were lysed in a Microfluidizer® (Microfluidics Corp.) using nitrogen at 20,000 psi. The lysate was centrifuged and filtered through 0.45 μm disposable filters. The filtrate was applied to a 150 mL column of Q SEPHAROSE® FastFlow (Pharmacia). The column was washed with 1.5 volumes of Buffer A (20 mM Bis-Tris Propane, pH 6.8, 1 mM MgCl2, 0.25 mM DTT, 10 μM ZnSO4) and eluted with a step gradient of 125 mM NaCl in Buffer A followed by a linear gradient of 125–1000 mM NaCl in Buffer A. Active fractions from the linear gradient were applied to a 180 mL hydroxyapatite column in Buffer B (20 mM Bis-Tris Propane (pH 6.8), 1 mM MgCl2, 0.25 mM DTT, 10 μM ZnSO4, and 250 mM KCl). After loading, the column was washed with 2 volumes of Buffer B and eluted with a linear gradient of 0–125 mM potassium phosphate in Buffer B. Active fractions were pooled, precipitated with 60% ammonium sulfate, and resuspended in Buffer C (20 mM Bis-Tris Propane, pH 6.8, 125 mM NaCl, 0.5 mM DTT, and 10 μM ZnSO4). The pool was applied to a 140 mL column of SEPHACRYL® S-300 HR and eluted with Buffer C. Active fractions were diluted to 50% glycerol and stored at −20° C. […]

Another series deals with T1, PDE5 (bovine aorta) (Bos taurus, UniProt Q28156).
T1 construct: from tissue; host or cells: bovine aorta
The series can be described thus: Inhibitory effect on cGMP-PDE, one-step assay, enzyme from bovine aorta. In kind it is biochemical. As to conditions: Table 1, Examples; footnote 1) vs. bovine aorta.

Molecules are shown by their SMILES.

With `CN(C)C(=O)[C@H]1Cc2c([nH]c3ccccc23)[C@@H](c2ccc3c(c2)OCO3)N1C(=O)/C=C/c1ccccc1` [Example 1, (1R,3R)-1-benzo[1,3]dioxol-5-yl-2-(3-phenylacryloyl)-2,3,4,9-tetrahydro-1H-β-carboline-3-carboxylic acid dimethylamide], the melting point fell in the range of 175 to 178 °C. In addition, at recombinant human PDE5, the IC50 was 44 nM.

As for `COC(=O)[C@H]1Cc2c([nH]c3ccccc23)[C@@H](c2ccc3c(c2)OCO3)N1C(=O)Oc1ccc([N+](=O)[O-])cc1` [Example 3, (−)-(1R,3R)-1-Benzo[1,3]dioxol-5-yl-1,3,4,9-tetrahydro-beta-carboline-2,3-dicarboxylic acid 3-methyl ester 2-(4-nitrophenyl)ester], the melting point lay within 175 to 187 °C. Further, the IC50 at recombinant human PDE5 is 241 nM.

`CCCCNC(=O)N1[C@@H](c2cccnc2)c2[nH]c3ccccc3c2C[C@H]1C(=O)OCC` [Example 4]: the midpoint of inhibition against PDE5 (bovine aorta), the IC50, lay at 200 nM.

On PDE5 (bovine aorta), `COC(=O)CN1[C@@H](c2ccc(OC)cc2)c2[nH]c3ccccc3c2C[C@H]1C(=O)NCc1ccccc1` [Example 5] displayed an IC50 of 490 nM. With `COC(=O)[C@@H]1Cc2c([nH]c3ccccc23)[C@H](c2ccc3c(c2)OCO3)N1C` [Example 6], the IC50 at recombinant human PDE5 was 230 nM. `COc1ccc([C@@H]2c3[nH]c4ccccc4c3C[C@@H](C(=O)NCc3ccccc3)N2C(C)=O)cc1` [Example 7] gave an IC50 at PDE5 (bovine aorta) of 1000 nM. As to `CCCNC(=O)[C@H]1Cc2c([nH]c3ccccc23)[C@@H](c2ccc3c(c2)OCO3)N1C(C)=O` [Example 8, (1R)-(+)-2-acetyl-1-benzo[1,3]dioxol-5-yl-2,3,4,9-tetrahydro-1H-β-carboline-3-carboxylic acid propylamide], the melting point was 163 to 165 °C. Moreover, the IC50 on recombinant human PDE5 was determined as 502 nM. As to `CC(=O)N1[C@H](c2ccc3c(c2)OCO3)c2[nH]c3ccccc3c2C[C@@H]1C(=O)N1CCOCC1` [Example 9, (1R)-(+)-1-[benzo[1,3]dioxol-5-yl-3-(morpholine-4-carbonyl)-1,3,4,9-tetrahydro-β-carbolin-2-yl]-ethanone], the IC50 on recombinant human PDE5 came to 261 nM. Turning to `CCCCNC(=O)[C@H]1Cc2c([nH]c3ccccc23)[C@@H](c2ccc3c(c2)OCO3)N1C(=O)/C=C/c1ccccc1` [Example 11, (1R,3R)-(+)-1-benzo[1,3]dioxol-5-yl-2-(3-phenylacryloyl)-2,3,4,9-tetrahydro-1H-β-carboline-3-carboxylic acid butylamide], the melting point lay within 114 to 117 °C. Besides, the IC50 at recombinant human PDE5 worked out at 629 nM. For the compound `CNC(=O)[C@H]1Cc2c([nH]c3ccccc23)[C@@H](c2ccc3c(c2)OCO3)N1C(=O)/C=C/c1ccccc1` [Example 12], the IC50 on recombinant human PDE5 is 30 nM. On to `CNC(=O)[C@H]1Cc2c([nH]c3ccccc23)[C@@H](c2ccc3c(c2)OCO3)N1C(=O)/C=C/c1ccc(Cl)cc1` [Example 13], for which the IC50 on recombinant human PDE5 stood at 420 nM.
